This passage reports IC50 results from ChEMBL document CHEMBL1157973, “ent-Trachylobane diterpenoids from Xylopia langsdorffiana” (J Nat Prod, 2006).

In one assay the test system is K562. Nature of the assay: Cytotoxicity against human K562 cells. The assay is classed as functional, cell-based.
The next assay concerns Hepatocyte. The experiment in a line: Cytotoxicity against Wistar rat hepatocytes cells by MTT assay. The assay is classed as cell-based. (Formazan colour is commonly taken as a measure of viable cells.)
In a further assay the test system is V79. Nature of the assay: Cytotoxicity against chinese hamster V79 cells by MTT assay. The assay is classed as cell-based. The conditions noted are these: Cricetulus griseus.

A word on the IC50: it is the midpoint of a concentration-inhibition curve. A lower IC50 goes with greater potency in that assay. Regarding `CC(=O)O[C@@H]1CC2[C@@](C)(C(=O)O)CCC[C@@]2(C)[C@@H]2C[C@@H]3C4C[C@@]21C[C@]43C` (stereo partly drawn), the IC50 worked out at 200 µM in the assay on K562, 231 µM in the assay with Hepatocyte and 224 µM with V79.
